Measured values from US6911465B1, “Anti-inflammatory indole derivatives” (AstraZeneca AB, priority 1999, dated 2005).
Read-outs that look alike come from different tables or passages of the source.

Tests used:
[1] = target: T1, MCP-1 receptor B (CCR2B) (Homo sapiens, UniProt P41597); assay: hMCP-1 receptor binding assay (125I-MCP-1, CHO-CCR2B cell membranes)
T1 construct: expressed in transfected cells; membrane fragments
T1 sequence (P41597 1-360 isoform P41597-2): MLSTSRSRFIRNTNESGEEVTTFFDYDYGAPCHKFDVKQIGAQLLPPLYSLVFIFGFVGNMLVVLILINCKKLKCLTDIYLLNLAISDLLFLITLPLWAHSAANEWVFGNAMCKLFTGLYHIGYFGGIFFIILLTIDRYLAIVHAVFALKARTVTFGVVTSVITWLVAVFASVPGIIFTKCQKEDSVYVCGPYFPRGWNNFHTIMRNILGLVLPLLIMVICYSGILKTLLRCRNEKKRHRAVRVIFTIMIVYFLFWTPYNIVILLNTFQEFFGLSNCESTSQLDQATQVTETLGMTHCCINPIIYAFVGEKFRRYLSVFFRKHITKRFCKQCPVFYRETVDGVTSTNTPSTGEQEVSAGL
From the text: The MCP-1 receptor B (CCR2B) cDNA was cloned by PCR from THP-1 cell RNA using suitable oligonucleotide primers based on the published MCP-1 receptor sequences (Charo et al., 1994, Proc. Natl. Acad. Sci USA, 91, 2752). The resulting PCR products were cloned into vector PCR-II™ (In Vitrogen, San Diego, Calif.). Error free CCR2B cDNA was subcloned as a Hind III-Not I fragment into the eukaryotic expression vector pCDNA3 (In Vitrogen) to generate pCDNA3/CC-CKR2A and pCDNA3/CCR2B respectively.
Linearised pCDNA3/CCR2B DNA was transfected into CHO-K1 cells by calcium phosphate precipitation (Wigler et al., 1979, Cell, 16, 777). Transfected cells were selected by the addition of Geneticin Sulphate (G418, Gibco BRL) at 1 mg/mlo, 24 hours after the cells had been transfected. Preparation of RNA and Norther Blotting were carried out as described previously (Needham et al., 1995, Prot. Express. Purific., 6, 134). CHO-K1 clone 7 (CHO-CCR2B) was identified as the highest MCP-1 receptor B-expressor. […]
^125I MCP-1 was preapred using Bolton and Hunter conjugation (Bolton et al., 1973, Biochem. J., 133, 529; Amersham International plc]. Equilibrium binding assays were carried out using the method of Ernst et al., 1994, J. Immunol., 152, 3541. Briefly, varying amounts of ^125I-labeled MCP-1 were added to 7 μg of purified CHO-CCR2B cell membranes in 100 μl of Binding Buffer. After 1 hour incubation at room temperature the binding reaction mixtures wre filtered and washed 5 times through a plate washer (Brandel MLR-96T Cell Harvester) using ice cold Binding Buffer. Filter mats (Brandel GF/B) were pre-soaked for 60 minutes in 0.3% polyethyleneimine prior to use. Following filtration individual filters were separated into 3.5 ml tubes (Sarsted No. 55.484) and bound ^125I-labeled MCP-1 was determined (LKB 1277 Gammamaster). […] Non-specific binding was determined by the incinsion of a 200-fold molar excess of unlabelled MCP-1 in the reaction. […]

[2] = system: THP-1 cells; assay: MCP-1 mediated calcium flux in THP-1 cells; assay type: cell-based, human; conditions: stimulation of THP-1 cells, FURA-2, approximate; read-out: EC50 for rise in [Ca2+]i
Protocol: The human monocytic cell line THP-1 was grown in a synthetic cell culture medium RPMI 1640 supplemented with 10% foetal calf serum, 6 mM glutamine and Penicillin-Streptomycin (at 50 μg streptomycin/ml, Gibco BRL). THP-1 cells were washed in HBSS (lacking Ca^2+ and Mg^2+)+1 mg/ml BSA and resuspending in the same buffer at a density of 3×10^6 cells/ml. The cells were then loaded with […] FURA-2/AM for 30 min at 37° C., washed twice in HBSS, and resuspended in 1×10^6 cells/ml. THP-1 cell suspension (0.9 ml) was added to a 5 ml disposable curvette containing a magnetic stirrer bar and 2.1 ml of prewarmed (37° C.) HBSS containing 1 mg/ml BSA, 1 mM MgCl2 and 2 mM CaCl2. The cuvette was placed in a fluorescence spectrophootmeter (Perkin Elmer, Norwalk, Conn.) and preincubated for 4 min at 37° C. with stirring. Fluorescence was recorded over 70 sec and cells wre stimulated by addition of hMCP-1 to the curvette after 10 sec. [Ca^2+]i was measured by excitation at 340 nm and 380 nm alternately and subsequent measurement of the intensity of the fluorescence emission at 510 nm. […] Rmax is the maximal fluorescence ratio determined after additional of […] lonomycin, […] ratio determined by the subsequent addition of a Ca^2+ free solution containing 5 mM EGTA, and Sf2/Sb2 is the ratio of fluorescence values at 380 nm excitation determined at Rmin and Rmax, respectively. […]

[3] = system: THP-1 cells; assay: hMCP-1 mediated chemotaxis of THP-1 cells; assay type: cell-based, human; conditions: biphasic response
Protocol: In vitro chemotaxis assays were performed using the human monocytic cell line THP-1. Cell migration through polycarbonate membranes was measured by enumerating those passing through either directly by Coulter counting or indirectly by use of a colourimetric viability assay measuring the cleavage of a tetrazolium salt by the microchondrial respiratory chain (Scudiero D. A. et al. 1988, Cancer Res., 48, 4827-4833).
Chemoattractants were introduced into a 96-well microtiter plate which forms the lower well of a chemotaxis chamber fitted with a PVP-free 5 μm poresize polycarbonate adhesive framed filter membrane (NeuroProbe MB series, Cabin John, MD 20818, USA) according to the manufacturer's instructions. […] The plate was incubated at 37° C. for 3 h and the absorbance of the soluble formazan product was read on a microtiter plate reader at 450 nm. The data was input into a spreadsheet, corrected for any random migration in the absence of chemoattractant and the average absorbance values, standard error of the mean, and significance tests were calculated. hMCP-1 induced concentration dependent cell migration with a characteristic biphasic response, maximal […].

| IC50 ([1]; cold competition, unlabelled MCP-1 vs 100 pM 125I-MCP-1, CHO-CCR2B membrane fragments, read-out: IC50 of MCP-1 binding to CCR2B) | Kd ([1]; equilibrium binding, CHO-CCR2B membrane fragments) | EC50 [2] | IC50 ([1]; competition with 100 pM labelled MCP-1, CHO-CCR2B membranes, 0.01-50 μM, read-out: IC50 in hMCP-1 receptor binding assay) | Molecule | concentration of maximal cell migration [3] |
| --- | --- | --- | --- | --- | --- |
| 0.11 nM | 0.12 nM | ~2 nM |  | MCP-1: Human Monocyte Chemoattractant Protein-1, the chemokine ligand of the CCR2 receptor | 0.5-1.0 nm |
|  |  |  | 1700 nM | O=C(CN1CCOCC1)Nc1cccc2c1cc(C(=O)O)n2Cc1ccc(Cl)c(Cl)c1 [Compound 2] |  |
